Assay results from patent publication EP0437790B1, “Antithrombotic compounds” (MERRELL DOW PHARMACEUTICALS INC., priority 1989, dated 1991).

Key:
canine = canine model of cyclic coronary blood flow reduction (Folts); assay type: in vivo; details: Canis lupus familiaris, iv, cyclic flow reduction of the left anterior descending coronary artery, read-out: DOSAGE TO PREVENT CFR
Excerpt: This procedure is well known in the art and has been described by John D. Folts, Edward B. Crowell Jr. and George G. Rowe, Circulation Vol 54, pages 365-370 (1976).
In Folts's model, the left anterior descending coronary artery of a canine is surgically isolated and the endothelial lining of this artery is purposefully damaged by squeezing the vessel in order to insure that the platelets will have the opportunity to come in contact with the collagen underlying the endothelial lining. This initiates the process of thrombus formation which was described above. An electronic flow probe is then placed on the artery so that blood flow through this vessel can be measured. A constrictor is then placed around the artery to produce a critical stenosis. The stenosis is said to be critical because the degree of stenosis is adjusted to abolish the hyperemic response following a 15 second occlusion of the artery. Shortly after producing the critical stenosis, blood flow through this segment of coronary artery will slowly decrease to near zero followed by a sudden return to control levels. The slow decrease in blood flow is caused by the formation of a platelet thrombus which occludes the artery. The sudden return of blood flow is due to dislodgement of the thrombus and/or its resulting conversion into an emboli.
This model can be utilized to test compounds for the ability to inhibit platelet aggregation and therefore prevent the formation of thrombi.
(§1) 1-(4-Fluorophenyl)-2-[4-[(4-methanesulfonamidophenyl)carbonyl]-1-piperidinyl]-ethanone (Compound #1) and 1-(4-fluorophenyl)-2-[4-[(4-acetamidophenyl)carbonyl]-1-piperidinyl]-ethanone (Compound #2) were tested in this model. For comparative purposes, 1-(3-pyridyl)-2-[4-[(4-methanesulfonamidophenyl)carbonyl]-1-piperidinyl]-ethanone (Compound #3) was also tested in this model. This compound was prepared and described in Example 35 of European Patent Application 0 235 752, supra.

5HT₂ receptor [1] = target: T1, 5HT₂ receptor (Rattus norvegicus, UniProt P14842); test: [³H] spiroperidol binding test; details: decrease in binding of [³H] spiroperidol to 5HT₂ receptors; read-out: IC₅₀
T1 construct: from tissue; host or cells: Brain membranes (rat frontal cortex)
T1 sequence (P14842 whole entry): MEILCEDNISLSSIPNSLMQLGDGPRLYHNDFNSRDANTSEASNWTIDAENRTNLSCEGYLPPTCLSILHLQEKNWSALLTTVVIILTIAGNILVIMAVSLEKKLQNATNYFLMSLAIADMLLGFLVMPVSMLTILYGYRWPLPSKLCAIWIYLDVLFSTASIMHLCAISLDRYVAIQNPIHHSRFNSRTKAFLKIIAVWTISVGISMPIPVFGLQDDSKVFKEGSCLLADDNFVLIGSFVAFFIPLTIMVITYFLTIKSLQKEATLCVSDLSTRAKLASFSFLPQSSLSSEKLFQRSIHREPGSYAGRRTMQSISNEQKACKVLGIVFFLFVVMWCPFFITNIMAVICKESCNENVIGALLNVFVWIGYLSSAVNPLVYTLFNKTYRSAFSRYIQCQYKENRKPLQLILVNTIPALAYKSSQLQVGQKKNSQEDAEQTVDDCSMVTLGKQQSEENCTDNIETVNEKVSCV
Excerpt: As noted above, the compounds are also serotonin 5HT₂ antagonists. […] In this test, 5HT₂ receptors are exposed to both [³H] spiroperidol, (a substance known to have a specific affinity for the receptor) and the test compound. The extent to which there is a decrease in binding of the [³H] spiroperidol to the receptor is indicative of the affinity of the test compound for the 5HT₂ receptor.
as §1, with “procedure.” for “model.”, “tested.” for “tested in this model. This compound was prepared and described in Example 35 of European Patent Application 0 235 752, supra.”

5HT₂ receptor [2] = test: 5-DMT head twitch test; assay type: in vivo; details: ip; mice; head twitch induced by 5-methoxy-N,N-dimethyltryptamine
Experimental: Psychopharmacol., Vol. 3, pages 89-92, (1979). The administration of 5-methoxy-N,N-dimethyltryptamine (DMT) to mice typically produces a characteristic head twitch in the mice. In this test, the mice are administered 5-DMT and a test compound. An absence of head twitches in the mice is considered to be predictive of the ability of the test compound to antagonize the 5HT₂ receptor in vivo.

Row | Structure (SMILES) | minimal effective dose (canine) [mg/kg] | IC50 (5HT₂ receptor [1]) [nM] | ED₅₀ FOR ABOLITION OF HEAD TWITCH (5HT₂ receptor [2]) [mg/kg]
1 | CS(=O)(=O)Nc1ccc(C(=O)C2CCN(CC(=O)c3ccc(F)cc3)CC2)cc1 [Compound #1, 1-(4-Fluorophenyl)-2-[4-[(4-methanesulfonamidophenyl)carbonyl]-1-piperidinyl]-ethanone] | 0.001 | 78 | 0.034
2 | CC(=O)Nc1ccc(C(=O)C2CCN(CC(=O)c3ccc(F)cc3)CC2)cc1 [Compound #2, 1-(4-fluorophenyl)-2-[4-[(4-acetamidophenyl)carbonyl]-1-piperidinyl]-ethanone] | 0.001 | 20 | 0.051
3 | CS(=O)(=O)Nc1ccc(C(=O)C2CCN(CC(=O)c3cccnc3)CC2)cc1 [Compound #3, 1-(3-pyridyl)-2-[4-[(4-methanesulfonamidophenyl)carbonyl]-1-piperidinyl]-ethanone, reference compound] | > 0.1 | > 5000 | > 200
